# ChEMBL document CHEMBL1201862, “PubChem BioAssay data set” (2004)
# Activity calls are given as the source filed them.
# Experiments:
# [1] = target: Cytochrome P450 3A4 (Homo sapiens, UniProt P08684);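 note: CYP3A4 tested as one member of a cytochrome P450 panel screen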
# [2] = target: Glucose-6-phosphate 1-dehydrogenase (Homo sapiens, UniProt P11413); test: inhibition of Homo sapiens G6PD, dose series – biochemical, fluorescence, selectivity assay for P. falciparum G6PD inhibitor project, dose response (AID 504792); format: functional
# Sequence of Glucose-6-phosphate 1-dehydrogenase (P11413 whole entry): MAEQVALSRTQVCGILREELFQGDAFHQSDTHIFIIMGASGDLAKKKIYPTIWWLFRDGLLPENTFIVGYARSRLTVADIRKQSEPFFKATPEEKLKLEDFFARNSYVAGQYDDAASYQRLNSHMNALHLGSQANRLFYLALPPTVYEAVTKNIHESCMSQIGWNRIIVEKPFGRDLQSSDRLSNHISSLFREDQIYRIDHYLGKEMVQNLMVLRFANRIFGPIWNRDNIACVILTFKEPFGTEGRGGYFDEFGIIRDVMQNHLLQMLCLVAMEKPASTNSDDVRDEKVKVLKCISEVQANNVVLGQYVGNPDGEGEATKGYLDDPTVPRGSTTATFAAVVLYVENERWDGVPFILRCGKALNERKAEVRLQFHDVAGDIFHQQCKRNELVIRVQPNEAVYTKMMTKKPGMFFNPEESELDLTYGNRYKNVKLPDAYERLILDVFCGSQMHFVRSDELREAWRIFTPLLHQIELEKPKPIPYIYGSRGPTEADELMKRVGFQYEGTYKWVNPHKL
# [3] = target: T1, Ubiquitin-conjugating enzyme E2 N (Homo sapiens, UniProt P61088); format: functional
# T1 sequence (P61088 whole entry): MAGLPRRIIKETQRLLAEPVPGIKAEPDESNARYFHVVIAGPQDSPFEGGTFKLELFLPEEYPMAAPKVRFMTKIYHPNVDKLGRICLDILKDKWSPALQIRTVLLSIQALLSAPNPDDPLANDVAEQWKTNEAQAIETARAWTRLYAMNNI
# [4] = target: T2, Bcl-2-related protein A1 (Mus musculus, UniProt Q07440); format: functional;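 note: confirmatory dose–response counterscreen on Bfl-1, used to check hits from a UBC13 polyubiquitin inhibitor campaign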
# T2 sequence (Q07440 whole entry): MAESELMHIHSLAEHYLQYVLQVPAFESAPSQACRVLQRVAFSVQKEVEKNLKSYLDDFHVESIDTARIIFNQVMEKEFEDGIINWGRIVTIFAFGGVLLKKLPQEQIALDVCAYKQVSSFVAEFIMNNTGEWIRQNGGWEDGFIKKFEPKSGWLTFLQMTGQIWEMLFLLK
# [5] = target: T1, Ubiquitin-conjugating enzyme E2 N; format: functional; remark: listed apart in the source
# [6] = target: DNA dC->dU-editing enzyme APOBEC-3A (Homo sapiens, UniProt P31941); test: Dose Response confirmation of small molecule APOBEC3A DNA Deaminase Inhibitors via a fluorescence-based single-stranded DNA deaminase assay. [Related pubchem assays (depositor defined):AID493011, AID493024]; format: functional
# Sequence of DNA dC->dU-editing enzyme APOBEC-3A (P31941 whole entry): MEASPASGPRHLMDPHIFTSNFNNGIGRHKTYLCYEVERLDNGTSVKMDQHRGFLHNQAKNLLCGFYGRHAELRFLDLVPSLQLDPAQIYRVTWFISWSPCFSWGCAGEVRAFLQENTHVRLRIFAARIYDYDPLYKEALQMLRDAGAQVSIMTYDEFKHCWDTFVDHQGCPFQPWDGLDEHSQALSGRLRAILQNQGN
# [7] = target: DNA dC->dU-editing enzyme APOBEC-3G (Homo sapiens, UniProt Q9HC16); format: functional;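 note: Dose-response counterscreen measuring inhibition of APOBEC3G DNA deaminase activity, run while confirming APOBEC3A inhibitors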
# Sequence of DNA dC->dU-editing enzyme APOBEC-3G (Q9HC16 whole entry): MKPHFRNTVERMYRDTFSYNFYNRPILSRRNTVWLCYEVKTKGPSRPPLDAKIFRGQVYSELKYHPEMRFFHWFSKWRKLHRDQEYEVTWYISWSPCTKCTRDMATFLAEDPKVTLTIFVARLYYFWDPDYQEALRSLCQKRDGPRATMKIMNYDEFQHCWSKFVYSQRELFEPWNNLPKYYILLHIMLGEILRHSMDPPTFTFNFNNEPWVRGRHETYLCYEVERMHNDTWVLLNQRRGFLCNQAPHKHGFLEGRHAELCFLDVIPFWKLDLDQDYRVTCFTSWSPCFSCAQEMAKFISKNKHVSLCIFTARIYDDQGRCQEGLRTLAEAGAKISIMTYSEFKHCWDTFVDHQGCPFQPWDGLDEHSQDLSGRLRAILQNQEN
# [8] = target: T3, Cytochrome P450 2D6 (Homo sapiens, UniProt P10635);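 note: CYP2D6 member of a cytochrome P450 panel assay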
# T3 sequence (P10635 whole entry): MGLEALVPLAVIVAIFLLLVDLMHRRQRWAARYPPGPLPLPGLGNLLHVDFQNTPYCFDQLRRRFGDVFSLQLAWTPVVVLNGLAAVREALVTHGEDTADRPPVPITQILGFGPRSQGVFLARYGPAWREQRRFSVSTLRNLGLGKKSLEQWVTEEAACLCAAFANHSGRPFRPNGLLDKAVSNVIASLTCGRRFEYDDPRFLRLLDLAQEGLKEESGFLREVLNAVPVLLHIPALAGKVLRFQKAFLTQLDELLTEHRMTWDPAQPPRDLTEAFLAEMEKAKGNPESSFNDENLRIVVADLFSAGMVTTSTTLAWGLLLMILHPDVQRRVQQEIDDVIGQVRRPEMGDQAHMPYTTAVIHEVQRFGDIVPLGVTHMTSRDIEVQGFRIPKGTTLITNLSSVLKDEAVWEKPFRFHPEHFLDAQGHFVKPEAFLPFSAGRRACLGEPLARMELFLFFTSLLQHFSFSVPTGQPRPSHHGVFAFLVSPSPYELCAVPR
# [9] = target: Cytochrome P450 2C9 (Homo sapiens, UniProt P11712)
# Sequence of Cytochrome P450 2C9 (P11712 whole entry, the tested form may be a part): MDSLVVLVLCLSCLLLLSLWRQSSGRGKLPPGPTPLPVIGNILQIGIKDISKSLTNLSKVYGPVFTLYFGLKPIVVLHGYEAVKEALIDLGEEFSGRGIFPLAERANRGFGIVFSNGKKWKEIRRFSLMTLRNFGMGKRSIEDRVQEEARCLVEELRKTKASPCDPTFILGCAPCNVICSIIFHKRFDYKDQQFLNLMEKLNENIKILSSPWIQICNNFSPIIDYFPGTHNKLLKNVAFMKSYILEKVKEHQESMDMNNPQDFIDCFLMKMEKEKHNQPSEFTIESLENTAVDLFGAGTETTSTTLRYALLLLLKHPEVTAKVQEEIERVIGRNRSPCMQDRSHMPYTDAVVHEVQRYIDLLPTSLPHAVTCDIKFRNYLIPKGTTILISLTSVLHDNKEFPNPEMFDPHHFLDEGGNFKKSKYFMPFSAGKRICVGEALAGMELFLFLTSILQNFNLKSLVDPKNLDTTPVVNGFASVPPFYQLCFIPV
# [10] = target: T4, Carboxy-terminal domain RNA polymerase II polypeptide A small phosphatase 1 (Homo sapiens, UniProt Q9GZU7); test: CTDSP1 inhibitors, concentration-response, biochemical, absorbance readout, ultra-high-throughput screen actives (AID 540297); format: functional
# T4 sequence (Q9GZU7 whole entry): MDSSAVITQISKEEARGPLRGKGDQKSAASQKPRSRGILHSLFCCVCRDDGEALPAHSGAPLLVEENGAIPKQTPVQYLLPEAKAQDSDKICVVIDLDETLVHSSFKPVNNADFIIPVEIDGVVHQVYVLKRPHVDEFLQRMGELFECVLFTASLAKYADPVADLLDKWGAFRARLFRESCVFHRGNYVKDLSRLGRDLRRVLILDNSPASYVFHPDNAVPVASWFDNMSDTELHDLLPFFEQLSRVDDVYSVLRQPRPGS
# [11] = viability of uninfected HEp-2 cells – cell-based, HTS, cytotoxicity control for RSV inhibitor project, dose response (AID 2410); format: functional; settings: human respiratory syncytial virus
# [12] = target: Cytochrome P450 2C19 (Homo sapiens, UniProt P33261); test: Cytochrome panel assay with activity outcomes. Panel member name: p450-cyp2c19 Compounds with AC50 equal or less than 10 uM are considered active; format: functional
# Sequence of Cytochrome P450 2C19 (P33261 whole entry): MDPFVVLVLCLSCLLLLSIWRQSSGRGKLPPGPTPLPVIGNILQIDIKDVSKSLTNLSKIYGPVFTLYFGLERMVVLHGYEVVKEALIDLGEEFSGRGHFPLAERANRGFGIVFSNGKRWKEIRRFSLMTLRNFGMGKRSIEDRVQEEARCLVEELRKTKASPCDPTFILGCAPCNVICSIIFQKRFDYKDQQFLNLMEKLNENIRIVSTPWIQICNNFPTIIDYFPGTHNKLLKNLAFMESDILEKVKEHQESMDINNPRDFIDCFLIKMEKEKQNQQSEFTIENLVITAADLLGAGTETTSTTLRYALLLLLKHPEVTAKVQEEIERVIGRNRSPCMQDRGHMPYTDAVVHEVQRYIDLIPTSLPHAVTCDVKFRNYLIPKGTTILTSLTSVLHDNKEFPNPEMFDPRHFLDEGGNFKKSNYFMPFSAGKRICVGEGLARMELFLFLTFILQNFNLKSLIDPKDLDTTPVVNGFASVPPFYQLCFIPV
# [13] = target: T3, Cytochrome P450 2D6; remark: listed apart in the source
# [14] = system: Streptococcus; test: GAS UMAA2166 growth inhibition – luminescence, BacTiterGlo, counter-screen for streptokinase expression inhibitor project, dose response (AID 1915); format: functional, organism-based;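 note: potency for reduction of bacterial viability or growth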
# [15] = target: T5, Cytochrome P450 1A2 (Homo sapiens, UniProt P05177);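 note: PubChem cytochrome P450 panel assay, CYP1A2 panel member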
# T5 sequence (P05177 whole entry): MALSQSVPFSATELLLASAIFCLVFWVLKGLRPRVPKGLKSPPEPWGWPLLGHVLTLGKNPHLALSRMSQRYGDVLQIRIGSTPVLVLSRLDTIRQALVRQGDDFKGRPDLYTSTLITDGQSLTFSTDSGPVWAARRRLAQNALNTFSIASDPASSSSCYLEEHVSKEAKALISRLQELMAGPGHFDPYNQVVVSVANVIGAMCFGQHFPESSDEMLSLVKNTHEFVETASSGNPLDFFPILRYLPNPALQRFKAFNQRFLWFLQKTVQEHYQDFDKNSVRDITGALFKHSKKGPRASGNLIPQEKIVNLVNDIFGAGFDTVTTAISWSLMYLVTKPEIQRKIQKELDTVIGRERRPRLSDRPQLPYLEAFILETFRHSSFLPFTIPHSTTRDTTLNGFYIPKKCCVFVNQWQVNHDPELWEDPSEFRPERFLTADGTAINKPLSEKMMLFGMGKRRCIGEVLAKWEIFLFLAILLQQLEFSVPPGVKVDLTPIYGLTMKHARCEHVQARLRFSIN
# [16] = Vero E6 cell cytotoxicity, dose response, cytotoxicity control for non-replicating M. tuberculosis project, secondary assay (AID 492998); format: functional, VeroE6; settings: Vero C1008
# [17] = cells; format: functional
# [18] = system: Streptococcus sp. 'group A'; test: Streptococcus pyogenes SK(-)GAS viability under kanamycin – luminescence, BacTiterGlo, confirmation, counter-screen for streptokinase expression inhibitor project, dose response (AID 1900); format: functional, organism-based
# [19] = THP-1 cell cytotoxicity, dose response, cytotoxicity control for non-replicating M. tuberculosis project (AID 489025); format: functional
# [20] = target: T6, Heat shock factor protein 1 (Mus musculus, UniProt P38532); test: enhancement of HSF1-driven luciferase signal – cell-based, NIH3T3, luminescence, dose retest, confirmation (AID 435004); format: functional;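 note: stress induced by proteasome inhibitor MG132 added 30 min after compound; luciferase reporter driven by HSF1 response element in NIH3T3 cells; actives raise luminescence as potentiators of the MG132 stress response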
# T6 sequence (P38532 whole entry): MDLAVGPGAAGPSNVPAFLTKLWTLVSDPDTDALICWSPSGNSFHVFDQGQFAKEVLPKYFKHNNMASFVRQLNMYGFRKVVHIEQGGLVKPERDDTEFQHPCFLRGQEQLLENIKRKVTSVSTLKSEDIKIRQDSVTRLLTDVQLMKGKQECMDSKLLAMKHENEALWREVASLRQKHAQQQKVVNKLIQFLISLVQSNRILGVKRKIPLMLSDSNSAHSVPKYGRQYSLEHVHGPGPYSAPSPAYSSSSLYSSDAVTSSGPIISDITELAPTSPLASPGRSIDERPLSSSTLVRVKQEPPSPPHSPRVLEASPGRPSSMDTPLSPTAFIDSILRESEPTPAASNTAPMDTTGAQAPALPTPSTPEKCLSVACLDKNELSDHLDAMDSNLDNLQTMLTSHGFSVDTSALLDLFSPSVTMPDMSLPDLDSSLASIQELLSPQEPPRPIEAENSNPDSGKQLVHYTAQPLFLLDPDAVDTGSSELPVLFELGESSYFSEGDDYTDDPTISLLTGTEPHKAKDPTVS
# [21] = target: Alkaline phosphatase, placental type (Homo sapiens, UniProt P05187); test: human placental alkaline phosphatase inhibition – biochemical, luminescence, confirmation (AID 1512); format: functional
# Sequence of Alkaline phosphatase, placental type (P05187 whole entry): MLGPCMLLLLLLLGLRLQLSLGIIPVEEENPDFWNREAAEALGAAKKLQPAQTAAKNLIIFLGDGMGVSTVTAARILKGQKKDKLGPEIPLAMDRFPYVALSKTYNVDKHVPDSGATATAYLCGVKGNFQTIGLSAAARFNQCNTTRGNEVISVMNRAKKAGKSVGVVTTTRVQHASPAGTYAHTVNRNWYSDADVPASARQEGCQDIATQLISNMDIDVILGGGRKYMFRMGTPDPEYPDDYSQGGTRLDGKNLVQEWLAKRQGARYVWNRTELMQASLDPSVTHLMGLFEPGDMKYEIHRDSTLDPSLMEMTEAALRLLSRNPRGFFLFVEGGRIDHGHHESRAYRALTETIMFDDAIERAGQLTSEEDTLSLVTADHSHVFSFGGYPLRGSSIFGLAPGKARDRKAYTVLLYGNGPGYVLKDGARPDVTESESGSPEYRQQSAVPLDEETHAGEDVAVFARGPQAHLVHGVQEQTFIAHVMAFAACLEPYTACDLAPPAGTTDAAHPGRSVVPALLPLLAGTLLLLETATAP
# [22] = target: T7, Alkaline phosphatase, tissue-nonspecific isozyme (Homo sapiens, UniProt P05186); test: potency against alkaline phosphatase TNAP – biochemical, luminescent, dose response, SAR follow-up (AID 1056)
# T7 sequence (P05186 whole entry): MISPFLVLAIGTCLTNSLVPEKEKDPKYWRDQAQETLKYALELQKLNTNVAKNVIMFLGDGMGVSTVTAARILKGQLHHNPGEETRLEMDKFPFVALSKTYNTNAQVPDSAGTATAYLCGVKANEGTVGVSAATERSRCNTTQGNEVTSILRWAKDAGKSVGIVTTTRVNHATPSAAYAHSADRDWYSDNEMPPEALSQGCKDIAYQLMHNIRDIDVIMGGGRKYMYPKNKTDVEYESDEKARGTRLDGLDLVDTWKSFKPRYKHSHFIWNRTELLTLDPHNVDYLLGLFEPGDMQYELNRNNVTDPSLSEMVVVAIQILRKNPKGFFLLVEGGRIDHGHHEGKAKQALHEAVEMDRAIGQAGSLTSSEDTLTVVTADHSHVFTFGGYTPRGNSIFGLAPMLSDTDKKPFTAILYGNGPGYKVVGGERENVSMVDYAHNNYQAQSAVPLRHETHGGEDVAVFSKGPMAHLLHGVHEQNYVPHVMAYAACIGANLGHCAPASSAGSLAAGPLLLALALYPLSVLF
# [23] = system: P388; test: cells; format: functional; settings: Mus musculus
# [24] = system: P388/ADR; test: cells; format: functional; settings: Mus musculus
# [25] = system: SN12K1; test: cells; format: functional; settings: Homo sapiens
# [26] = target: Dual specificity tyrosine-phosphorylation-regulated kinase 1A (Rattus norvegicus, UniProt Q63470); format: biochemical, Homo sapiens
# Sequence of Cytochrome P450 3A4 (P08684 whole entry): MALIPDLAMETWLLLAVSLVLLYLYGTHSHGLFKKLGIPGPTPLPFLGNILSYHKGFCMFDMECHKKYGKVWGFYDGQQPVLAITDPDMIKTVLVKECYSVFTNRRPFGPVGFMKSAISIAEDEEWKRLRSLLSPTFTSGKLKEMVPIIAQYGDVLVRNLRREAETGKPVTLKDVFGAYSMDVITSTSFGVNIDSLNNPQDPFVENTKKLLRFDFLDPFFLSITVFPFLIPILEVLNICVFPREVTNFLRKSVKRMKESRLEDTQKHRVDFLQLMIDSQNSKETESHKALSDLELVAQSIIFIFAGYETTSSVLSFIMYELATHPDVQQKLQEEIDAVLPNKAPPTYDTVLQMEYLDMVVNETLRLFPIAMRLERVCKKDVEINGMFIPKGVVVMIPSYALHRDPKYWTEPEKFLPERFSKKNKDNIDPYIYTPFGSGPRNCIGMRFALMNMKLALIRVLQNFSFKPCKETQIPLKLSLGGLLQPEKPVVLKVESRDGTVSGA
structure (smiles),measurement,setting,value
COC(=O)[C@](C)(N)Cc1ccc(O)cc1,AC50,[1],inconclusive
Cc1ccc(-c2csc(NC(=O)c3ccc(Br)cc3)c2C(=O)O)cc1,IC50,[2],> 80 µM (inactive)
O=C(Nc1ccc(F)c(Cl)c1)C1CCN(c2ncnc3c2nc2n3CCCCC2)CC1,IC50,[3],8.53 µM (active)
same,IC50,[4],> 20 µM (inactive)
same,IC50,[5],9.53 µM (active)
CC(=O)Nc1nnc(SCC(=O)NCCOc2ccccc2)s1,IC50,[6],4.13 µM (active)
same,IC50,[7],5.12 µM (active)
O=C(CNC(=O)c1ccco1)OCC(=O)c1ccc([N+](=O)[O-])cc1,IC50,[2],> 80 µM (inactive)
COCCNC(=O)COC(=O)/C=C/c1cnc2ccccc2n1,AC50,[8],inconclusive
same,AC50,[9],1.12 µM (inconclusive)
CCN1C(NCCCCO)=N[C@@H](c2cccc(F)c2)C(C(=O)OC)=C1C,IC50,[6],3.06 µM (active)
same,IC50,[7],5.05 µM (active)
CC(C)c1ccc(/C=C2\SC(=O)N(CC(=O)NC3C=CS(=O)(=O)C3)C2=O)cc1 (stereo unspecified),IC50,[10],11.8 µM (active)
same,CC50,[11],18.8 µM (active)
CN(C)S(=O)(=O)c1ccc(NC(=O)Cc2ccc(S(=O)(=O)N3CCOCC3)s2)cc1,IC50,[10],9.34 µM (active)
COC(=O)c1ccc(NC(=O)N2CCC(O)(c3cccnc3)CC2)cc1,AC50,[12],inconclusive
same,AC50,[13],15.8 µM (inconclusive)
same,AC50,[1],inconclusive
c1ccc2c(c1)nnn2CN1CCOCC1,AC50,[8],inconclusive
O=C1c2cccc3cccc(c23)C(=O)N1CC1CCN(CC(O)COCc2ccc3c(c2)OCO3)CC1 (stereo unspecified),IC50,[3],3.25 µM (active)
same,IC50,[4],> 20 µM (inactive)
same,IC50,[5],4.33 µM (active)
CN1CCN(C(=O)C2CCN(c3ncnc4c3nc3n4CCCCC3)CC2)CC1,IC50,[3],3.51 µM (active)
same,IC50,[4],> 20 µM (inactive)
same,IC50,[5],6.77 µM (active)
CC(C)CCC[C@@H](C)[C@@H]1CC[C@@H]2[C@H]3CC[C@H]4C[C@@H](N)CC[C@@]4(C)[C@@H]3CC[C@]21C,AC50,[8],inconclusive
same,AC50,[12],inconclusive
CCC(C(=O)NC1CCCC1)N(C(=O)c1snc(C(N)=O)c1N)c1ccc2c(c1)OCCO2 (stereo unspecified),IC50,[3],7.69 µM (active)
same,IC50,[4],> 20 µM (inactive)
same,IC50,[5],5.82 µM (active)
C[C@H](Br)CN(C[C@H](C)Br)c1ccc2c(c1)Cc1ccccc1-2,AC50,[8],inconclusive
COc1cc2c(cc1NC(=O)CSc1nc3ccccc3[nH]1)oc1ccccc12,IC50,[10],17.1 µM (active)
CCC(CC)c1nnc(NC(=O)c2ccc3ccccc3n2)s1,AC50,[8],inactive
same,EC50,[14],12.5 µM (active)
same,AC50,[9],7.94 µM (active)
same,AC50,[12]; read-out: AC50,28.2 µM (active)
same,AC50,[15],2.51 µM (active)
same,CC50,[16],18.4 µM (active)
same,IC50,[17],0.42 µM (active)
same,EC50,[18],8.53 µM (active)
same,CC50,[19],> 40 µM (active)
COc1ccc(C(=O)N2CCC3(CC2)CCN(c2ncccn2)CC3)cc1,AC50,[13],20 µM (inconclusive)
same,AC50,[1],inconclusive
Cc1ccc(N(C(=O)c2snc(C(N)=O)c2N)C(C(=O)NC2CCCC2)c2ccco2)cc1 (stereo unspecified),IC50,[3],8.18 µM (active)
same,IC50,[4],> 20 µM (inactive)
same,IC50,[5],13.3 µM (active)
O=C1CN(C(=O)c2ccc(Br)o2)C(c2ccc(F)cc2)c2cc(Cl)ccc2N1 (stereo unspecified),AC50,[15],0.0631 µM (inconclusive)
same,AC50,[1],inconclusive
same,EC50,[20],> 260 µM (inactive)
O/N=C/c1cc(Cl)ccc1OCc1cccc2ccccc12,IC50,[21],> 100 µM (inactive)
same,IC50,[22],> 100 µM (inactive)
CC1C(=O)C(C)C(c2ccccc2)N(N=O)C1c1ccccc1 (stereo unspecified),GI50,[23],> 100 µM (inactive)
same,GI50,[24],> 100 µM (inactive)
same,GI50,[25],42.8 µM (inactive)
CCCCN.N#C/C(=C\c1ccc(O)cc1)C(=O)O,AC50,[26],3.24 µM (active)
CC1=CCCC2C1(C)CCC(C)C2(C)Cc1cc(O)ccc1O (stereo unspecified),GI50,[23],1.37 µM (inactive)
same,GI50,[24],1.63 µM (inactive)
same,GI50,[25],4.2 µM (inactive)
Cc1ccc(/C=N/NC(=O)c2cccs2)cc1[N+](=O)[O-],AC50,[12]; read-out: AC50,31.6 µM (inconclusive)
same,AC50,[13],0.0251 µM (inconclusive)
same,AC50,[1],inconclusive
Cc1cnn(CC(=O)c2ccc(O)c(O)c2)c1,IC50,[21],2.13 µM (active)
same,IC50,[22],> 100 µM (inactive)
CN(C)CCN1C(=O)c2cccc3cc(N)cc(c23)C1=O [AMONAFIDE],GI50,[23],0.524 µM (active)
same,GI50,[24],1.14 µM (inactive)
same,GI50,[25],2.15 µM (inactive)
